Experimental data reported in US20050130989A1, “N-arylheteroaromatic products compositions containing them and use thereof” (Aventis Pharma S. A., priority 2003, published 2005).
pIC50: −log10 of the molar value. Structures can show the parent of a compound that is named as a salt.

Tests used:
tubulin = target: T1, tubulin (Sus scrofa, UniProt P02550+P02554); experiment: Evaluation of the inhibition of tubulin polymerization (turbidimetry); type: biochemical, pig; details: tubulin 10 μm (1 mg/ml), 37° C., turbidity at 350 nm; concentration that inhibits the rate of polymerization by 50%; read-out: Inhibition of tubulin polymerization IC 50 (μm)
T1 construct: Tubulin is purified from pig brain according to published methods; from tissue; host or cells: pig brain
T1 sequence (P02550 whole entry): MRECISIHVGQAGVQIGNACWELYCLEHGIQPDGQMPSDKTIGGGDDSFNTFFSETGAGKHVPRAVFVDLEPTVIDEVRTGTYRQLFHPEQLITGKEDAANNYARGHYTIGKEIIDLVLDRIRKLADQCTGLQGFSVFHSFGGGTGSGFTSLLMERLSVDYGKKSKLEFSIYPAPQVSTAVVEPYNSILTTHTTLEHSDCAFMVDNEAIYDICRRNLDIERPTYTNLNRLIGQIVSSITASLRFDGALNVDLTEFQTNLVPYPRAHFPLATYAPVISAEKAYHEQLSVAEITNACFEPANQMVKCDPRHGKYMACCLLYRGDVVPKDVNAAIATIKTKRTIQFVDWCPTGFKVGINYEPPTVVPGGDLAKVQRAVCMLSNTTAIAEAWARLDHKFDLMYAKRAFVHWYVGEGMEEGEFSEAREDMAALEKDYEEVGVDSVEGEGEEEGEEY
T1 sequence (P02554 whole entry): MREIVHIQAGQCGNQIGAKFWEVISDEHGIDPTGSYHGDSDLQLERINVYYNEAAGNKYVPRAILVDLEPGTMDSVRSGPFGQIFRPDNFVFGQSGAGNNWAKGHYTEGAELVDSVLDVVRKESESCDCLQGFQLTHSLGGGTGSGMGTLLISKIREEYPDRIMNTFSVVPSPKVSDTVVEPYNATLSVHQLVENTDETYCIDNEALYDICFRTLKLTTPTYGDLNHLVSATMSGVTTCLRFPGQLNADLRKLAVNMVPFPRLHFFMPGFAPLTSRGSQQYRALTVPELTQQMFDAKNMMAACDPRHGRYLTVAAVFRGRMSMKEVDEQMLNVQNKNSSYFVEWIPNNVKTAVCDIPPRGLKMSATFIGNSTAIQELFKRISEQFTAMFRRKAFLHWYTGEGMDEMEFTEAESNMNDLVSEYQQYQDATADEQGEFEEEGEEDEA
Summary of the method: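 Pig brain tubulin (>95% pure), 10 μm in MES pH 6.8/30% glycerol buffer plus 1 mM GTP and 6 mM MgCl2, with compound at 0.5–10 μm added before polymerization. Polymerization triggered by shift from 6° C to 37° C, followed by turbidity at 350 nm; IC50 is 50% inhibition of polymerization rate.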

HCT116 cells = experiment: Inhibition of proliferation of the human colon tumor line HCT116 ([14C]-thymidine incorporation); type: cell-based; details: Homo sapiens, HCT-116, 48 h, 48 hours at 37° C., read-out: Inhibition of HCT116 proliferation IC 50 (μm)
Summary of the method: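 HCT116 cells (5000/well) in DMEM with 10% fetal calf serum incubated 48 h at 37° C with [14C]-thymidine (0.1 μCi/well) and compound up to 10 μm (DMSO ≤0.5%). Incorporated radioactivity counted; IC50 is concentration cutting radioactivity by 50% versus untreated control.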

Row | Compound | melting point [°C] | pIC50 (tubulin) | pIC50 (HCT116 cells)
1 | O=C(c1cccn1-c1ccccc1)N1CCN(c2cccnc2)CC1 (as salt: hydrochloride) [Example E46, (1-Phenyl-1H-pyrrol-2-yl)[4-(pyrid-3-yl)piperazin-1-yl]methanone hydrochloride] | 180 |  | 
2 | Cc1cc(C(=O)N2CC=C(c3ccccc3)CC2)n(-c2ccccc2)n1 [Example 4, (4-Phenyl-1,2,3,6-tetrahydropyridin-1-yl)(5-methyl-2-phenyl-2H-pyrazol-3-yl)-methanone] | 68 | 5.52 | 7.23
3 | COc1cc(OC)cc(N2CCN(C(=O)c3cc(/C=C/c4ccc(F)cc4)nn3-c3ccccc3)CC2)c1 [Example E87, [4-(3,5-Dimethoxyphenyl)piperazin-1-yl]-{5-[E-2-(4-fluorophenyl)vinyl]-2-phenyl-2H-pyrazol-3-yl}methanone] |  | 5.90 | 5.89
4 | COc1cc(OC)cc(N2CCN(C(=O)c3cc(-c4ccc(F)cc4)nn3-c3ccccc3)CC2)c1 [Example E88, [4-(3,5-Dimethoxyphenyl)piperazin-1-yl][5-(4-fluorophenyl)-2-phenyl-2H-pyrazol-3-yl]methanone] |  | 5.34 | 5.90
5 | COc1cc(OC)cc(N2CCN(C(=O)c3cc(-c4ccc(C(F)(F)F)cc4)nn3-c3ccccc3)CC2)c1 [Example E89, [4-(3,5-Dimethoxyphenyl)piperazin-1-yl][2-phenyl-5-(4-trifluoromethylphenyl)-2H-pyrazol-3-yl]methanone] |  | 5.47 | 5.96
6 | COc1cc(OC)cc(N2CCN(C(=O)c3cc(-c4ccoc4)nn3-c3ccccc3)CC2)c1 [Example E90, [4-(3,5-Dimethoxyphenyl)piperazin-1-yl][5-(furan-3-yl)-2-phenyl-2H-pyrazol-3-yl]methanone] |  | 5.76 | 7.73
7 | COc1cc(OC)cc(N2CCN(C(=O)c3cc(-c4ccc[nH]4)nn3-c3ccccc3)CC2)c1 [Example E91, [4-(3,5-Dimethoxyphenyl)piperazin-1-yl][2-phenyl-5-(1H-pyrrol-2-yl)-2H-pyrazol-3-yl]methanone] |  | 6.00 | 7.98
8 | COc1cc(OC)cc(N2CCN(C(=O)c3cc(N4CCCC4)nn3-c3ccccc3)CC2)c1 [Example E93, [4-(3,5-Dimethoxyphenyl)piperazin-1-yl][2-phenyl-5-(pyrrolidin-1-yl)-2H-pyrazol-3-yl]methanone] |  | 5.69 | 8.20
9 | COc1cc(OC)cc(N2CCN(C(=O)c3cc(/C=N/O)nn3-c3ccccc3)CC2)c1 [Example E94, 5-[4-(3,5-Dimethoxyphenyl)piperazine-1-carbonyl]-1-phenyl-1H-pyrazole-3-carboxaldehyde oxime E] |  | 6.05 | 8.70
10 | COc1cc(OC)cc(N2CCN(C(=O)c3cc(N4CCOCC4)nn3-c3ccccc3)CC2)c1 [Example E96, [4-(3,5-Dimethoxyphenyl)piperazin-1-yl][5-(morpholin-4-yl)-2-phenyl-2H-pyrazol-3-yl]methanone] |  | 4.94 | 7.13
11 | COc1cc(OC)cc(N2CCN(C(=O)c3cc(NCc4ccccc4)nn3-c3ccccc3)CC2)c1 [Example E98, (5-Benzylamino-2-phenyl-2H-pyrazol-3-yl)[4-(3,5-dimethoxyphenyl)piperazin-1-yl]methanone] |  | 5.85 | 6.65
12 | COc1cc(OC)cc(N2CCN(C(=O)c3cc(N4CCC(O)C4)nn3-c3ccccc3)CC2)c1 (stereo not shown) [Example E106, [4-(3,5-Dimethoxyphenyl)piperazin-1-yl][5-(3-hydroxypyrrolidin-1-yl)-2-phenyl-2H-pyrazol-3-yl]methanone] |  | 5.00 | 6.85
13 | Cc1cc(C(=O)N2CCN(c3cc(F)c(F)c(F)c3)CC2)n(-c2ccccc2)n1 [Example E111, (5-Methyl-2-phenyl-2H-pyrazol-3-yl)[4-(3,4,5-trifluorophenyl)piperazin-1-yl]methanone] | 204 | 5.63 | 
14 | Cc1cc(C(=O)N2CCN(c3nccs3)CC2)n(-c2ccccc2)n1 [Example E115] |  | > 4.60 | 5.49

Other lines, results leading:

Row | melting point [°C] | pIC50 (tubulin) | pIC50 (HCT116 cells) | Compound
15 | 105 | 5.92 | 7.42 | O=C(c1cccn1-c1ccccc1)N1CCN(c2cccc(Cl)c2)CC1 [Example 6, [4-(3-Chlorophenyl)piperazin-1-yl](1-phenyl-1H-pyrrol-2-yl)methanone]
16 | 138 | 6.05 | 8.92 | Cc1cc(C(=O)N2CCN(c3cccc(Br)c3)CC2)n(-c2ccccc2)n1 [Example E6, [4-(3-Bromophenyl)piperazin-1-yl](5-methyl-2-phenyl-2H-pyrazol-3-yl)methanone]
17 | 158 | 5.52 | 7.27 | Cc1cc(C(=O)N2CCN(c3cccc(N)c3)CC2)n(-c2ccccc2)n1 [Example E9, [4-(3-Aminophenyl)piperazin-1-yl](5-methyl-2-phenyl-2H-pyrazol-3-yl)methanone]
18 | 136 | 6.05 | 8.31 | Cc1cc(C(=O)N2CCN(c3cccc(C#N)c3)CC2)n(-c2ccccc2)n1 [Example E10, [4-(3-Cyanophenyl)piperazin-1-yl](5-methyl-2-phenyl-2H-pyrazol-3-yl)-methanone]
19 | 107 | 6.00 | 7.92 | Cc1cc(C(=O)N2CCN(c3cccc(OC(F)(F)F)c3)CC2)n(-c2ccccc2)n1 [Example E11, [4-(3-Trifluoromethyloxyphenyl)piperazin-1-yl](5-methyl-2-phenyl-2H-pyrazol-3-yl)methanone]
20 | 128 | 5.64 | 8.51 | Cc1cc(C(=O)N2CCN(c3ccc4c(c3)OCO4)CC2)n(-c2ccccc2)n1 [Example E12, [4-(1,3-Benzodioxol-5-yl)piperazin-1-yl](5-methyl-2-phenyl-2H-pyrazol-3-yl)-methanone]
21 | 144 | 4.65 |  | Cc1cc(C(=O)N2CCN(c3cccc(C(=O)OC(C)(C)C)c3)CC2)n(-c2ccccc2)n1 [Example E27, tert-butyl 3-[4-(5-methyl-2-phenyl-2H-pyrazole-3-carbonyl)piperazin-1-yl]benzoate]
22 | 127 | 4.87 |  | Cc1cc(C(=O)N2CCN(c3ccccc3[N+](=O)[O-])CC2)n(-c2ccccc2)n1 [Example E62, (5-Methyl-2-phenyl-2H-pyrazol-3-yl)[4-(2-nitrophenyl)piperazin-1-yl]methanone]
23 |  | 5.94 | 9.00 | COc1cc(OC)cc(N2CCN(C(=O)c3ccnn3-c3ccccc3)CC2)c1 [Example E92, [4-(3,5-Dimethoxyphenyl)piperazin-1-yl](2-phenyl-2H-pyrazol-3-yl)methanone]
24 |  | 6.10 | 9.77 | COc1cc(OC)cc(N2CCN(C(=O)c3cc(/C=N\O)nn3-c3ccccc3)CC2)c1 [Example E95, 5-[4-(3,5-Dimethoxyphenyl)piperazine-1-carbonyl]-1-phenyl-1H-pyrazole-3-carboxaldehyde oxime Z]
25 |  | 5.44 | 7.09 | Cc1cc(C(=O)N2CCN(c3cccc(C(N)=O)c3)CC2)n(-c2cccnc2)n1 [Example E97, 3-[4-(5-Methyl-2-pyrid-3-yl-2H-pyrazole-3-carbonyl)piperazin-1-yl]benzamide]
26 |  | 6.00 | 8.62 | COc1cc(OC)cc(N2CCN(C(=O)c3cc(N)nn3-c3ccccc3)CC2)c1 [Example E99, (5-Amino-2-phenyl-2H-pyrazol-3-yl)[4-(3,5-dimethoxyphenyl)piperazin-1-yl]methanone]
27 |  | 6.30 | 8.39 | COc1cc(OC)cc(N2CCN(C(=O)c3cc(C=O)nn3-c3ccccc3)CC2)c1 [Example E100, 5-[4-(3,5-Dimethoxyphenyl)piperazine-1-carbonyl]-1-phenyl-1H-pyrazole-3-carboxaldehyde]
28 |  | 6.00 | 7.78 | Cc1cc(C(=O)N2CCN(c3cccc(NCCO)c3)CC2)n(-c2ccccc2)n1 [Example E103, {4-[3-(2-Hydroxyethylamino)phenyl]piperazin-1-yl}-(5-methyl-2-phenyl-2H-pyrazol-3-yl)methanone]
29 |  | 5.10 | 6.08 | Cc1cc(C(=O)N2CCN(c3ccsc3)CC2)n(-c2ccccc2)n1 [Example E104, (5-Methyl-2-phenyl-2H-pyrazol-3-yl)[4-(thiophen-3-yl)piperazin-1-yl]-methanone]
30 |  | 4.92 | 5.93 | CNCCNC(=O)c1cccc(N2CCN(C(=O)c3cc(C)nn3-c3ccccc3)CC2)c1 [Example E110, N-(2-Methylaminoethyl)-3-[4-(5-methyl-2-phenyl-2H-pyrazole-3-carbonyl)piperazin-1-yl]benzamide]
31 |  | 5.52 | 6.92 | Cc1cc(C(=O)N2CCN(c3cccc(NC(=O)CCO)c3)CC2)n(-c2ccccc2)n1 [Example E128, 3-Hydroxy-N-{3-[4-(5-methyl-2-phenyl-2H-pyrazole-3-carbonyl)piperazin-1-yl]-phenyl}propionamide]
32 | 216 | 5.49 |  | NC(=O)c1cccc(N2CCN(C(=O)c3cc(CO)nn3-c3ccccc3)CC2)c1 [Example E134, 3-[4-(5-Hydroxymethyl-2-phenyl-2H-pyrazole-3-carbonyl)piperazin-1-yl]benzamide]
